Here are results for 3 compounds from patent US8207313B2, “Natural products from Vinca” (William Marsh Rice University, priority 2007, dated 2012).

Common to all, as to type: cell-based, Human
In one data set the test system is MMP-9. The experiment in a line: MMP-9 expression in LPS-stimulated THP-1 cells (gelatin zymography). To be noted: THP-1 cells pre-treated 2 h with 5, 10 and 20 μg/ml compound, then 1 μg/ml LPS, supernatant at 24 h; MMP-2 internal control. As to the method: Several of the compounds were tested for pharmaceutical activity against two well known inflammatory mediators—MMP-9 and TNF-α. Compounds (1), (2), (3), and (4), were tested. An inflammatory reaction is stimulated with LPS and MMP-2 is used as an internal gene expression control.
The inhibitory effect of flavonoid glycoside compounds on MMP-9 expression (FIG. 1) was assayed in THP-1 cells stimulated with LPS. In panels A, C, E and G; THP-1 cells were pre-treated with 5, 10 and 20 μg/ml of the compound specified for 2 h. After pre-treatment with the relevant compound, the cells were then stimulated with 1 μg/ml LPS. The culture supernatants were collected 24 h after activation and subjected to substrate gel electrophoresis (gelatin zymography) and staining with Coomassie brilliant blue.

A further data set relates to THP-1 cells. The data set is described as follows: THP-1 cell viability, MTS assay. To be noted: THP-1 cells treated with the compound as in the MMP-9 test. The protocol:
In panels B, D, F and H; THP-1 cells were treated with the compound in A, C, E and G, and cell viability was tested with MTS assay.
Background: Tetrazolium dyes change colour on reduction, which living cells bring about.

Another data set relates to TNF-α. The experiment in a line: TNF-α in culture supernatant of LPS-activated THP-1 cells (sandwich ELISA). To be noted: THP-1 cells pre-treated 2 h with compound, 1 μg/ml LPS, supernatant at 24 h, ELISA in duplicate. The protocol: The blocking effect of compounds on cytokines expression (FIG. 2) induced by LPS in monocytic cell lines was then assessed. THP-1 cells were pre-treated with compounds for 2 h and activated with 1 μg/ml LPS. Culture supernatants were collected in 24 h and the TNF-α concentrations were measured using sandwich ELISA. Measurements were done in duplicate. […] Therefore the compounds work to suppress inflammatory response and are potent anti-inflammatory compounds.

Turning to `C/C=C(\C)[C@@H](CCC(C)CCCC(C)CCCC(C)C)OC1C(CO)OC(Oc2cc(O)c3c(=O)c(O)c(-c4ccc(OC)c(OC)c4)oc3c2)C(O)C1O` (stereo partly drawn) [Compound (1), 3,5,7-trihydroxy-3′,4′-dimethoxyflavone-7β-D-glucopyranosyl(4″-13′″)2′″,6′″,10′″,14′″-tetramethyl hexadec-14-ene], the “inhibition of MMP-9 expression” value with MMP-9 was “inhibits MMP-9 expression in a dose dependant manner”. For the same compound, the cell viability entry in the data set with THP-1 cells is “no negative impact on cell viability”. In the data set on TNF-α, the TNF-α production result is “inhibited”.
`C=C(CCC=C(C)C)CC/C=C(\C)CC(=O)OCC1OC(Oc2ccc3c(c2)OC(c2ccc(OC)c(OC)c2)CC3=O)C(O)C(O)C1O` (stereo not drawn) [Compound (3)]: the “inhibition of MMP-9 expression” value in the data set on MMP-9 is listed as “inhibits MMP-9 expression in a dose dependant manner”. Further, the cell viability entry in the data set with THP-1 cells is reported as “no negative impact on cell viability”. Also, in the data set on TNF-α, the TNF-α production entry is “inhibited”.
Regarding `CCC(C)C(CCC(C)CCCC(C)CCCC(C)C)OC1(CO)COC(COc2c(-c3ccc(OC)cc3)oc3cc(O)cc(O)c3c2=O)C(O)C1O` [Compound (2), 3,5,7-trihydroxy-4′-methoxyflavone-3β-D-glucopyranosyl (4″-13′″)-2′″,6′″,10′″,14′″-tetramethyl hexadecane], the “inhibition of MMP-9 expression” value in the data set on MMP-9 was “inhibits MMP-9 expression in a dose dependant manner”. Moreover, the cell viability entry in the data set with THP-1 cells is given as “no negative impact on cell viability”. The TNF-α production result in the data set with TNF-α is given as “inhibited”.
